Assay results from US7718673B2, “Isonipecotamides for the treatment of integrin-mediated disorders” (Ortho-McNeil Pharmaceutical, Inc., priority 1999, dated 2010).
Where two headings read alike, the source gives them in different places.

Legend:
Human αvβ3 = target: T1, Human αvβ3 (Homo sapiens, UniProt P05106+P06756); test: In vitro solid phase purified αvβ3 binding assay (vitronectin/αvβ3)
T1 construct: purchased Chemicon International Inc., Temecula, Calif
Protocol: In Vitro Solid Phase Purified αvβ3 Binding Assay
(§1) The vitronectin/αvβ3 binding assay methods were derived from Mehta et al. (Biochem J. 1998, 330, 861). Human αvβ3 (Chemicon International Inc., Temecula, Calif.), at a concentration of 1 μg/ml dissolved in Tris buffer (20 mM Tris, 1 mM CaCl2, […], 10 μM MnCl2, 150 mM NaCl), was immobilized on Immulon 96 well plates (Dynex Technologies, Chantilly, Va.) overnight at 4° C. Plates were washed and treated with blocking buffer (3% BSA in Tris buffer) for 2 h at 37° C. Plates were then rinsed 2 times with Tris buffer containing 0.3% BSA and 0.2% Tween20 (polyoxyethylenesorbitan monolaurate). Five minutes prior to the addition of 5 nM vitronectin (Sigma, St. Louis, Mo.), synthesized compounds were added to wells in duplicate. Each plate included c-RGDfV as an internal control. Following a 3 hour incubation at 37° C., plates were washed 5 times in assay buffer. An anti-human vitronectin IgG rabbit polyclonal antibody (Calbiochem, San Diego, Calif.) was added (1:2000) and plates were incubated for 1 hour at room temperature. VectaStain ABC peroxidase kit reagents (Vector Laboratories, Burlingame, Calif.) employing a biotin labeled anti-rabbit IgG, were utilized for detection of bound antibody. Plates were read at 490 nm on a Molecular Devices (Sunnyvale, Calif.) microplate reader.

[1] = target: RGD-affinity purified GPIIb/IIIa (Homo sapiens, UniProt P05106+P08514); test: In vitro solid phase purified GPIIb/IIIa binding assay (biotinylated fibrinogen); settings: fibrinogen binding to immobilized GPIIb/IIIa; read-out: IIb/IIIa IC50
Sequence of RGD-affinity purified GPIIb/IIIa (P08514 32-887 limits assumed): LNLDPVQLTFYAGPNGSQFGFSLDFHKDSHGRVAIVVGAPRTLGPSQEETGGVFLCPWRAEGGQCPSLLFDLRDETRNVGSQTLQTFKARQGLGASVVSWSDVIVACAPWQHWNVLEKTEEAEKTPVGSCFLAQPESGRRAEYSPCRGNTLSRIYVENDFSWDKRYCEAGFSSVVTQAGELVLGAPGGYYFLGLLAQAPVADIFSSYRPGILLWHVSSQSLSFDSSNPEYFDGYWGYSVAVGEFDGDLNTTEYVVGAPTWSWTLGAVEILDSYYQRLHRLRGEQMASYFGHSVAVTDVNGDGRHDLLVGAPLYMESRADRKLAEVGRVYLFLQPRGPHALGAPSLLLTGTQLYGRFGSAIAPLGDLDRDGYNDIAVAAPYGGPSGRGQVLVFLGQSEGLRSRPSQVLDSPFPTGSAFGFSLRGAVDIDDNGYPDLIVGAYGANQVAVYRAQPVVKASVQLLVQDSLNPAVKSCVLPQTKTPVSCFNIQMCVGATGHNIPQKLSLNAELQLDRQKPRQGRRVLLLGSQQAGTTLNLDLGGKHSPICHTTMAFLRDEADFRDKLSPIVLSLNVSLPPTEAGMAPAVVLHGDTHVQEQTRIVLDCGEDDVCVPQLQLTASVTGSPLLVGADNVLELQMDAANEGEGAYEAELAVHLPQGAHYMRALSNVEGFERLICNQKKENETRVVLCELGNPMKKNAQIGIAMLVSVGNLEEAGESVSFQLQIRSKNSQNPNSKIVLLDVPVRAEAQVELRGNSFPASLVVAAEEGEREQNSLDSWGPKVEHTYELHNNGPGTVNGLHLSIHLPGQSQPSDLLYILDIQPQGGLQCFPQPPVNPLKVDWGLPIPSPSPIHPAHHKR
Sequence of RGD-affinity purified GPIIb/IIIa (P08514 891-1039 partner limits assumed): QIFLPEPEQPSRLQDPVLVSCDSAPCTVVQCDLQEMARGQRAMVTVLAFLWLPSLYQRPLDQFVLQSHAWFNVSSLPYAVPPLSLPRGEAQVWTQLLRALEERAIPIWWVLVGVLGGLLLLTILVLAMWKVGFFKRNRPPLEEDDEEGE
Sequence of RGD-affinity purified GPIIb/IIIa (P05106 27-788): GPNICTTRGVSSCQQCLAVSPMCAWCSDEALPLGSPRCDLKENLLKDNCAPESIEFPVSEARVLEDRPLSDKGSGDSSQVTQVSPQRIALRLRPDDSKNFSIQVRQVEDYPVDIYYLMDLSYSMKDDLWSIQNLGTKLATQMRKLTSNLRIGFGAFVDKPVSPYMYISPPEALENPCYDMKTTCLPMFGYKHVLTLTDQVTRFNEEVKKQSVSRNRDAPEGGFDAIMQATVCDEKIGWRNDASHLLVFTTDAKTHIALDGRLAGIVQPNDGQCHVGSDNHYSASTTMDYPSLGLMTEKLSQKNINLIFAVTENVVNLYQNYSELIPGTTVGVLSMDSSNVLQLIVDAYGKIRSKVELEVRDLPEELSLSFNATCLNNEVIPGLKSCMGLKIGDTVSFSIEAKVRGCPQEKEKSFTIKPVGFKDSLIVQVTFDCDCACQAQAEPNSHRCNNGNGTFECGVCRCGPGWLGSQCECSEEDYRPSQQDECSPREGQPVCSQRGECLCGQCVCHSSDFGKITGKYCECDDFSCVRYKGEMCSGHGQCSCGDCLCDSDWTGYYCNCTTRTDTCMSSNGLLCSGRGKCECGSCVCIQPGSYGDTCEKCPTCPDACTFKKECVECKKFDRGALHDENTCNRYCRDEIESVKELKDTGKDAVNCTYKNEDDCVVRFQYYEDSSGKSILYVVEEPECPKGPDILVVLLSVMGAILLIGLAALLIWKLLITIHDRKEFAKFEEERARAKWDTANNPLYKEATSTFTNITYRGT
Protocol: In Vitro Solid Phase Purified GP IIB/IIIA Binding Assay
The plate was covered and incubated overnight at 4° C. The GPIIb/IIIa solution was discarded and 150 μl of 5% BSA was added and incubated at RT for 1-3 h. The plate was washed extensively with modified Tyrodes buffer. Biotinylated fibrinogen (25 μl/well) at 2× final concentration was added to the wells that contain the test compounds (25 μl/well). The plate was covered and incubated at RT for 2-4 h. Twenty minutes prior to incubation completion, one drop of Reagent A (VectaStain ABC Horse Radish Peroxidase kit, Vector Laboratories, Inc.) and one drop Reagent B were added with mixing to 5 mL modified Tyrodes buffer mix and let stand. The ligand solution was discarded and the plate washed (5×200 μl/well) with modified Tyrodes buffer. Vecta Stain HRP-Biotin-Avidin reagent (50 μl/well, as prepared above) was added and incubated at RT for 15 min. The Vecta Stain solution was discarded and the wells washed (5×200 μl/well) with modified Tyrodes buffer. Developing buffer (10 mL of 50 mM citrate/phosphate buffer @ pH 5.3, 6 mg o-phenylenediamine, 6 μl 30% H2O2; 50 μl/well) was added and incubated at RT for 3-5 min, and then 2 NH2SO4 (50 μl/well) was added. The absorbance was read at 490 nm.

human purified αvβ5 = target: T2, human purified αvβ5 (Homo sapiens, UniProt P06756+P18084); test: In vitro solid phase purified αvβ5 binding assay (vitronectin/αvβ5); settings: for IC50: vitronectin binding to immobilized αvβ5; for inhibition at 5 µM: read-out: αvβ5 Percent inhibition at 5 μM
T2 construct: purchased Chemicon International, Inc
T2 sequence (P06756 31-889 limits assumed): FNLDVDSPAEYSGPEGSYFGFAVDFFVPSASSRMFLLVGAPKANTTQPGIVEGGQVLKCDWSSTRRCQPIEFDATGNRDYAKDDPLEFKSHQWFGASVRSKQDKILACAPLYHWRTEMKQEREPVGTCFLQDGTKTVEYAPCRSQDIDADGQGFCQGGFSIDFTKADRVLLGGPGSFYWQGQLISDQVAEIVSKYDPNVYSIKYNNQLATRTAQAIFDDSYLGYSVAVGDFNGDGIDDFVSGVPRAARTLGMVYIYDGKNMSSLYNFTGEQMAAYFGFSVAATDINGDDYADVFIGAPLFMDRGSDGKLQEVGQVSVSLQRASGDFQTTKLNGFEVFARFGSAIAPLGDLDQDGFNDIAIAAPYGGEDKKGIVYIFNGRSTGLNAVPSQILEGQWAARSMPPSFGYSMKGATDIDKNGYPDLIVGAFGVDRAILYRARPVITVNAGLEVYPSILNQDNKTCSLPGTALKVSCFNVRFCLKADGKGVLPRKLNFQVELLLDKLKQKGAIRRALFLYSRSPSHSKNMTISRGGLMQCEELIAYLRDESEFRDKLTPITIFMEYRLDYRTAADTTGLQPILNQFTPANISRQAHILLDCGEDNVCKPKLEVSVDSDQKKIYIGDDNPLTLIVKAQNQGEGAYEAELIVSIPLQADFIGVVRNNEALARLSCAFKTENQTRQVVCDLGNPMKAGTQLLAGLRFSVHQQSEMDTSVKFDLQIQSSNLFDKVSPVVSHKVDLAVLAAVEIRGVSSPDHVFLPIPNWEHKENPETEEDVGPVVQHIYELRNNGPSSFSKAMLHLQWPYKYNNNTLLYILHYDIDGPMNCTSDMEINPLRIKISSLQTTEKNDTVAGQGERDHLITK
T2 sequence (P06756 891-1048 partner limits assumed): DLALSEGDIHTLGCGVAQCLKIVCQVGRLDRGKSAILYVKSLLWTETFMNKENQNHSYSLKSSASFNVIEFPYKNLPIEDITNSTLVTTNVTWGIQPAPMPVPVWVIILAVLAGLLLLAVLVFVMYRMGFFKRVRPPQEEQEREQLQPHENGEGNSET
T2 sequence (P18084 24-799): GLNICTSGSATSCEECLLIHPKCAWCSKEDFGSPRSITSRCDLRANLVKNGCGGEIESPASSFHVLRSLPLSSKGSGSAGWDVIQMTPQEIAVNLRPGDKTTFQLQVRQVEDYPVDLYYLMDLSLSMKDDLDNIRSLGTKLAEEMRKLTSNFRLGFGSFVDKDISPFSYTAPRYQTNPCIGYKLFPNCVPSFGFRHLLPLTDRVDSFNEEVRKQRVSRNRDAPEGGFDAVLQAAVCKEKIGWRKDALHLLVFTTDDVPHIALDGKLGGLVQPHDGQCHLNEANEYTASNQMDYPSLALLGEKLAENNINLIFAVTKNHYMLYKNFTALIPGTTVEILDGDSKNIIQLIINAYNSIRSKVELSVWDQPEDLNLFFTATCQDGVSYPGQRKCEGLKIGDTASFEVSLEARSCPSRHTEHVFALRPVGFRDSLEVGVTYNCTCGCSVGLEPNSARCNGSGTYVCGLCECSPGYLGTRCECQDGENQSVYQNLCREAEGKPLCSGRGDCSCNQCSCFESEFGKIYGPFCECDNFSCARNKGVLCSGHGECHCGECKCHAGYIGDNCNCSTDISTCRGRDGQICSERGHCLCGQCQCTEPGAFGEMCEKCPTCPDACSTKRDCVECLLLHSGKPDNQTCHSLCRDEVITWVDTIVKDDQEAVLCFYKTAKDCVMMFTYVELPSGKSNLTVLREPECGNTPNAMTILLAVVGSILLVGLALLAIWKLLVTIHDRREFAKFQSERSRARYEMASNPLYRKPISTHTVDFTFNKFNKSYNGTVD
Protocol: as §1
In Vitro Solid Phase Purified αvβ5 Binding Assay
The vitronectin/αvβ5 binding assay method was performed in the same manner as the vitronectin/αvβ3 binding assay (EXAMPLE 64) immobilizing with 1 μg/ml of human purified αvβ5 (Chemicon International, Inc.) on to Immulon 96 well plates (Dynex Technologies) instead of αvβ3. All other aspects of the assay including buffers, reagents, and incubation times remain unchanged.

[2] = vitronectin binding to immobilized αvβ3, read-out: αvβ3 IC50

T1 sequence (P06756 31-889 limits assumed): as the sequence (P06756 31-889 limits assumed) above
T1 sequence (P06756 891-1048 partner limits assumed): as the sequence (P06756 891-1048 partner limits assumed) above
T1 sequence (P05106 27-788): as the sequence (P05106 27-788) above

Row | IC50 [1] [nM] | IC50 (human purified αvβ5) [nM] | IC50 (Human αvβ3; [2]) [nM] | melting point [°C] | inhibition at 5 µM (human purified αvβ5) [%] | SMILES | IC50 (Human αvβ3) [nM]
1 | 8.9 | 21 | 5.8 |  |  | O=C(N[C@@H](CNC(=O)C1CCN(C(=O)CCCNC2=NCCN2)CC1)C(=O)O)OCc1ccccc1 [Compound 2, 3-[[[1-[4-[(4,5-dihydro-1H-imidazol-2-yl)amino]-1-oxobutyl]-4-piperidinyl]carbonyl]amino]-N-[(phenylmethoxy)carbonyl]-L-alanine] | 
2 | 460 |  | 4 | 87 to 90 |  | O=C(O)C[C@H](NC(=O)C1CCN(C(=O)CCCNc2ccccn2)CC1)c1cnc2ccccc2c1 [Compound 6, β-[[[1-[1-oxo-4-(2-pyridinylamino)butyl]-4-piperidinyl]carbonyl]amino]-, (β^3S)-3-quinolinepropanoic acid] | 
3 | 18 | 38 | 19 |  |  | CC(CNC1=NCCN1)C(=O)N1CCC(C(=O)NC[C@H](NC(=O)OCc2ccccc2)C(=O)O)CC1 (stereo partly drawn) [Compound 16, 3-[[[1-[3-[(4,5-dihydro-1H-imidazol-2-yl)amino]-2-methyl-1-oxopropyl]-4-piperidinyl]carbonyl]amino]-N-[(phenylmethoxy)carbonyl]-L-alanine] | 
4 | 1500 | > 5000 | 29 |  |  | COc1ccc(C(CC(=O)O)NC(=O)C2CCN(C(=O)CCCNC3=NCCN3)CC2)cc1OC (stereo not drawn) [Compound 34] | 
5 | 360 | 2900 | 28 |  |  | COC(=O)C[C@H](NC(=O)C1CCN(C(=O)CCCNC2=NCCN2)CC1)c1cnc2ccccc2c1 [Compound 44] | 
6 | 14000 |  | 3700 |  | 40 | CCN(CC)C(=O)COC(=O)CC(NC(=O)C1CCN(C(=O)CCCNC2=NCCN2C(=O)OC(C)(C)C)CC1)c1cnc2ccccc2c1 (stereo not drawn) [Compound 45] | 
7 | 1600 | > 5000 | 150 |  |  | CCN(CC)C(=O)COC(=O)CC(NC(=O)C1CCN(C(=O)CCCNC2=NCCN2)CC1)c1cnc2ccccc2c1 (stereo not drawn) [Compound 46] | 
8 | 1100 |  | 510 |  |  | CC(CCNC1=NCCN1)C(=O)N1CCC(C(=O)N[C@@H](CC(=O)O)Cc2ccccc2)CC1 (stereo partly drawn) [Compound 48] | 
9 | 12 | 210 | 39 |  |  | C=CC(CCC(=O)N1CCC(C(=O)NC[C@H](NC(=O)OCc2ccccc2)C(=O)O)CC1)NC1=NCCN1 (stereo partly drawn) [Compound 49] | 
10 | 7.4 |  | 3900 |  | 38 | C=CC(N)CCC(=O)N1CCC(C(=O)NC[C@H](NC(=O)OCc2ccccc2)C(=O)O)CC1 (stereo partly drawn) [Compound 50, 3-[[[1-(4-amino-1-oxo-5-hexenyl)-4-piperidinyl]carbonyl]amino]-N-[(phenylmethoxy)carbonyl]-L-alanine] | 
11 | 290 | 2000 | 270 |  |  | COC(=O)[C@H](CNC(=O)C1CCN(C(=O)C(C)CNC2=NCCN2)CC1)NC(=O)OCc1ccccc1 (stereo partly drawn) [Compound 51] | 
12 | 2700 | 760 | 250 |  |  | CC(CNC1=NCCN1)C(=O)N1CCC(C(=O)N[C@@H](CC(=O)O)c2cccnc2)CC1 (stereo partly drawn) [Compound 52] | 
13 | 1.5 |  | 570 |  |  | O=C(N[C@@H](CNC(=O)C1CCN(C(=O)c2ccc(CNC3=NCCN3)cc2)CC1)C(=O)O)OCc1ccccc1 [Compound 53, 3-[[[1-[4-[[(4,5-dihydro-1H-imidazol-2-yl)amino]methyl]benzoyl]-4-piperidinyl]carbonyl]amino]-N-[(phenylmethoxy)carbonyl]-L-alanine] | 
14 | 13 |  | 72 |  |  | CC(CNC1=NCCN1)CC(=O)N1CCC(C(=O)NC[C@H](NC(=O)OCc2ccccc2)C(=O)O)CC1 (stereo partly drawn) [Compound 54] | 
15 | 26 |  | 12 |  |  | O=C(N[C@@H](CNC(=O)C1CCN(C(=O)/C=C/CNC2=NCCN2)CC1)C(=O)O)OCc1ccccc1 [Compound 55] | 
16 | 49 |  | > 5000 |  |  | NCCCC(=O)N1CCC(C(=O)NC[C@H](NC(=O)OCc2ccccc2)C(=O)O)CC1 [Compound 56] | 
17 | 130 |  | 350 |  |  | O=C(N[C@H](CNC(=O)C1CCN(C(=O)CCCNC2=NCCS2)CC1)C(=O)O)OCc1ccccc1 [Compound 57] | 
18 | 260 | 71 | 40 |  |  | N=C(N)NOCCC(=O)N1CCC(C(=O)NC[C@H](NC(=O)OCc2ccccc2)C(=O)O)CC1 [Compound 58] | 
19 | 510 |  | 160 |  |  | O=C(NCCCC(=O)N1CCC(C(=O)NC[C@H](NC(=O)OCc2ccccc2)C(=O)O)CC1)NCc1ccccc1 [Compound 59] | 
20 | 190 | 86 | 27 |  |  | O=C(N[C@@H](CNC(=O)C1CCN(C(=O)CCONC2=NCCN2)CC1)C(=O)O)OCc1ccccc1 [Compound 60] | 
21 | 2700 |  | 180 |  |  | O=C(O)CC(NC(=O)C1CCN(C(=O)CCONC2=NCCN2)CC1)c1ccc2c(c1)OCO2 (stereo not drawn) [Compound 61, β-[[[1-[3-[[(4,5-dihydro-1H-imidazol-2-yl)amino]oxy]-1-oxopropyl]-4-piperidinyl]carbonyl]amino]-1,3-benzodioxole-5-propanoic acid] | 
22 | 380 |  | > 500 |  |  | O=C(O)CC(NC(=O)C1CCN(C(=O)CCCNc2ccccn2)CC1)c1ccc2c(c1)OCO2 (stereo not drawn) [Compound 62, β-[[[1-[1-oxo-4-(2-pyridinylamino)butyl]-4-piperidinyl]carbonyl]amino]-1,3-benzodioxole-5-propanoic acid] | 

Row | SMILES | IC50 [1] [nM] | IC50 (human purified αvβ5) [nM] | IC50 (Human αvβ3; [2]) [nM] | melting point [°C] | inhibition at 5 µM (human purified αvβ5) [%] | IC50 (Human αvβ3) [nM]
23 | O=C(O)C[C@H](NC(=O)C1CCN(C(=O)CCCNC2=NCCN2)CC1)c1cnc2ccccc2c1 [Compound 1, β-[[[1-[4-[(4,5-dihydro-1H-imidazol-2-yl)amino]-1-oxobutyl]-4-piperidinyl]carbonyl]amino]-, (β^3S)-3-quinolinepropanoic acid] | 30 | 25 |  |  |  | 3.7
